Structures can show the parent of a compound that is named as a salt.
Assay: Bioavailability in multiple species
Settings: in vivo, oral

In the case of `Cc1cnc(Nc2ccc(OCCN3CCCC3)cc2)nc1Nc1cccc(S(=O)(=O)NC(C)(C)C)c1` [TG101348, N-tert-butyl-3-[(5-methyl-2-{[4-(2-pyrrolidin-1-ylethoxy)phenyl]amino}pyrimidin-4-yl)amino]benzenesulfonamide dihydrochloride monohydrate], the bioavailability is reported as 20 to 25%.

— patent US20210244735A1, “COMPOSITIONS AND METHODS FOR TREATING MYELOFIBROSIS” (Impact Biomedicines, Inc., priority 2010, published 2021)
